Source: patent US20180344881A1, “FORMULATIONS FOR 2-HETEROARYL SUBSTITUTED BENZOFURANS” (Navidea Biopharmaceuticals, Inc., priority 2015, published 2018)

Assays:
[1] = Filter type and excipient compatibility screen, retention of tracer on filter (FIG. 1); format: physicochemical; details: in PEG400 at levels of the excipient exceeding 10%; Sartorius Minisart 16596 HY 0.2 μm (FIG. 1)
Experimental: In examples of experiments, tests were performed on prospective formulations with different filter types to screen for compatibility of the filter material. Both cellulose and polyethersulfone membranes retained unacceptable quantities of the drug substance, with the lowest retention values obtained using polyvinylidene difluoride (PVDF) and polytetrafluoroethylene (PTFE) derived membranes.
In this case, a solution of [^18F]NAV4694 in PEG400 appears to have low retention at levels of the excipient exceeding 10%.
In the ensuing experiments, each of the excipients were formulated at multiple concentration levels (within acceptable ranges) then treated with small quantities of [^18F]NAV4694 and finally filtered through the preferred filter units. The percent retention of drug substance was then directly calculated through measurement of the actual quantity of radioactivity retained on the filter and compared to that remaining in the filtrate.

[2] = [^18F]NAV4694 solution for injection: stability (radiochemical purity over time); format: physicochemical
Experimental: [^18F]NAV4694 solution for injection was tested over a range of radioactivity concentration values to determine the capacity and potential expiry at given concentrations.

[3] = radioactivity concentration below about 75 mCi/mL
[4] = very high activity levels (>100 mCi/mL)

retention of the tracer on the filter [1]: low retention
initial radiochemical purity [2, 3]: high initial radiochemical purity
time over which high radiochemical purity is retained [2, 3]: retained over at least ten hours
decomposition [2, 4]: accelerated decomposition
initial radiochemical purity [2, 4]: lower initial radiochemical purity
SMILES: CNc1ccc(-c2cc3cc(O)ccc3o2)c([18F])n1 [[^18F]NAV4694, 2-[2-(^18F)fluoro-6-(methylamino)-3-pyridinyl)-5-benzofuranol]
